Experimental findings from patent US7335632B2, “Beta-secretase inhibitors and methods of use thereof” (CoMentis, Inc., priority 2001, dated 2008) are described below.

The structures appear in SMILES notation. Where two headings read alike, the source gives them in different places.

Common to all, as to type: biochemical
One assay addresses memapsin 2 (Homo sapiens, UniProt P56817). Description: Inhibition of memapsin 2 beta-secretase activity toward fluorogenic substrate FS-2. The following applies: pH 4, 37° C., 20 minutes pre-incubation, substrate FS-2, tight-binding model; read-out: M2 Ki. The method, then: Potency of compounds were determined by measurement of their inhibition of memapsin 2 activity toward a fluorescent substrate. […] Briefly, assays were performed at pH 4, 37° C., by pre-incubation of memapsin 2 enzyme with compound for 20 minutes. Activity measure was initiated by addition of a fluorogenic substrate FS-2 (Bachem Americas, Torrance, Calif.). Fluorescent signal increase over time was measured as a rate of hydrolysis of the peptide substrate.

The target of another assay is T1, memapsin 1 (Homo sapiens, UniProt Q9Y5Z0).
T1 sequence (Q9Y5Z0 63-518): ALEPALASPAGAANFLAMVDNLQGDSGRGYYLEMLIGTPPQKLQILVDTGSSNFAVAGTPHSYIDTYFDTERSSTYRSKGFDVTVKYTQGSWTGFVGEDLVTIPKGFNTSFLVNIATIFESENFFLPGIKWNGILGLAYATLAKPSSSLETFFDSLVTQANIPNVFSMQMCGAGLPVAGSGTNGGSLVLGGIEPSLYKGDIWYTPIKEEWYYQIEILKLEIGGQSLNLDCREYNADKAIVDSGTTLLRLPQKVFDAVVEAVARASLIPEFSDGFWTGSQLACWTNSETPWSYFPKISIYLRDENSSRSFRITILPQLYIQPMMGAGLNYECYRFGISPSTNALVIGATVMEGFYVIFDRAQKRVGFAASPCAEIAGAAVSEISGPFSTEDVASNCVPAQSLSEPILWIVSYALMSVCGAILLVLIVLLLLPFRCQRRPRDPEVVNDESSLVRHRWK
Description: Inhibition of memapsin 1 beta-secretase activity (substrate peptide […], MALDI-TOF). The conditions noted are these: pH 4.1, 37 degrees C., substrate NH3-ELDLAVEFWHDR-CO2, MALDI-TOF; read-out: M1 Ki.

In a further assay the target is Cathepsin D (Homo sapiens, UniProt P07339). Description: Inhibition of cathepsin D activity (substrate peptide […], MALDI-TOF). The following applies: pH 4.1, 37 degrees C., read-out: Cath D Ki.
Setting [1] is: substrate NH3-[…]-CO2, MALDI-TOF.

Chain of Cathepsin D (P07339 65-412, species assumed): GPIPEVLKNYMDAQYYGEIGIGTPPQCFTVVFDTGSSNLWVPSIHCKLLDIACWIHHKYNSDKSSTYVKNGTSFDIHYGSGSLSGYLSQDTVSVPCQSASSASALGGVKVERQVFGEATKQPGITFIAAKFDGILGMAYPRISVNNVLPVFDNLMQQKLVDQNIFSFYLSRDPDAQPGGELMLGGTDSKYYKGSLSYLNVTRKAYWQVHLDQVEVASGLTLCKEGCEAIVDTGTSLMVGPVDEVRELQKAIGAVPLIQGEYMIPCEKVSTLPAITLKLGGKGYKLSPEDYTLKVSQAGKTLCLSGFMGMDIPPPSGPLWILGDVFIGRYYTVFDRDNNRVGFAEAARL
Chain of memapsin 2 (P56817 46-501): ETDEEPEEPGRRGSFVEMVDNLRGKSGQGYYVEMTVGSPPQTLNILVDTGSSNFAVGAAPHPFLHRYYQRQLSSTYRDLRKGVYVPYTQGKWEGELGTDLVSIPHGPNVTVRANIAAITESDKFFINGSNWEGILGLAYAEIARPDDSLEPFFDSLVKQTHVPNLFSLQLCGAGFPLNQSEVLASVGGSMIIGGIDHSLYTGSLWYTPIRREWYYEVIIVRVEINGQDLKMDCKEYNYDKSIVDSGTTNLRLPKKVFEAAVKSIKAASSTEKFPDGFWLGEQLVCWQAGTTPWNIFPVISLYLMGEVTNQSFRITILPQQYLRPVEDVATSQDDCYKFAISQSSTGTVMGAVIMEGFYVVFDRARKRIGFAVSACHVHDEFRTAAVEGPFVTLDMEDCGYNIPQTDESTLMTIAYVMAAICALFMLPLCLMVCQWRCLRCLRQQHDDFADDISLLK

For `CSC[C@H](NC(=O)OCc1nccn1C)C(=O)N[C@@H](CC(C)C)[C@@H](O)C[C@@H](C)C(=O)N[C@@H](C(=O)NCC(C)C)C(C)C` [Structure 6], the Ki on memapsin 2 was more than 1000 nM; on memapsin 1 it was less than 100 nM; on Cathepsin D (setting [1]), 100 to 1000 nM.
For `C=CCSC[C@H](NC(=O)CCn1nc(C)cc1C)C(=O)N[C@@H](CC(C)C)[C@@H](O)C[C@@H](C)C(=O)N[C@H](C(=O)NCC(C)C)C(C)C` [Structure 10] the same measures were less than 100 nM, less than 100 nM and less than 100 nM.
For `CSC[C@H](NC(=O)CC(C)n1nc(C)cc1C)C(=O)N[C@@H](CC(C)C)[C@@H](O)C[C@@H](C)C(=O)N[C@H](C(=O)NCC(C)C)C(C)C` (stereo partly drawn) [Structure 11] the same measures were more than 1000 nM, 100 to 1000 nM and less than 100 nM.
Take `COCSC[C@H](NC(=O)CCn1nc(C)cc1C)C(=O)N[C@H](CC(C)C)[C@@H](O)C[C@@H](C)C(=O)N[C@@H](C(=O)NCC(C)C)C(C)C` [Structure 14]: the Ki at memapsin 2, on memapsin 1 and at Cathepsin D (setting [1]) was less than 100 nM each time.
As to `COCS(=O)(=O)C[C@H](NC(=O)CCn1nc(C)cc1C)C(=O)N[C@H](CC(C)C)[C@@H](O)C[C@@H](C)C(=O)N[C@@H](C(=O)NCC(C)C)C(C)C` [Structure 15], the Ki on memapsin 2, at memapsin 1 and on Cathepsin D (setting [1]) was 100 to 1000 nM in each case.
In the case of `CC(C)CNC(=O)[C@H](NC(=O)[C@H](C)C[C@H](O)[C@@H](CC(C)C)NC(=O)[C@H](CS(C)(=O)=O)NC(=O)OCc1ccn(C)n1)C(C)C` [Structure 20], the Ki at memapsin 2, on memapsin 1 and at Cathepsin D (setting [1]) was 100 to 1000 nM in each case.
As for `CSC[C@H](NC(=O)OCc1csc(C)n1)C(=O)N[C@H](CC(C)C)[C@@H](O)C[C@@H](C)C(=O)N[C@@H](C(=O)NCC(C)C)C(C)C` [Structure 21], the Ki at memapsin 2 was 100 to 1000 nM; at memapsin 1 it was 100 to 1000 nM; at Cathepsin D (setting [1]), less than 100 nM.
For the molecule `COCCOCSC[C@H](NC(=O)OCc1nc(C)cs1)C(=O)N[C@H](CC(C)C)[C@@H](O)C[C@@H](C)C(=O)N[C@@H](C(=O)NCC(C)C)C(C)C` [Structure 23], the figures for the Ki on memapsin 2, on memapsin 1 and on Cathepsin D (setting [1]) were less than 100 nM, 100 to 1000 nM and less than 100 nM, respectively.
With `CCS(=O)(=O)C[C@H](NC(=O)OCc1nc(C)c[s+]1[O-])C(=O)N[C@H](CC(C)C)[C@@H](O)C[C@@H](C)C(=O)N[C@@H](C(=O)NCC(C)C)C(C)C` (stereo partly drawn) [Structure 24], the Ki was more than 1000 nM at memapsin 2, 100 to 1000 nM at memapsin 1 and less than 100 nM on Cathepsin D (setting [1]).
As to `Cc1nc(COC(=O)N[C@@H](CS(C)(=O)=O)C(=O)N[C@H](CC(C)C)[C@@H](O)C[C@@H](C)C(=O)N[C@@H](C(=O)NCC(C)C)C(C)C)cs1` [Structure 25], the Ki at memapsin 2 is 100 to 1000 nM; on memapsin 1, less than 100 nM; on Cathepsin D (setting [1]), 100 to 1000 nM.
For the molecule `Cc1nc(COC(=O)N[C@@H](CS(C)(=O)=O)C(=O)N[C@H](CC(C)C)[C@@H](O)C[C@@H](C)C(=O)N[C@@H](C(=O)NCC(C)C)C(C)C)cs1` [Structure 26], the Ki on memapsin 1 was 100 to 1000 nM.
Regarding `CSC[C@H](NC(=O)OCc1coc(C)n1)C(=O)N[C@H](CC(C)C)[C@@H](O)C[C@@H](C)C(=O)N[C@@H](C(=O)NCC(C)C)C(C)C` [Structure 27], the Ki at memapsin 2 is 100 to 1000 nM; at memapsin 1, 100 to 1000 nM; at Cathepsin D (setting [1]), less than 100 nM.
On to `Cc1nc(COC(=O)N[C@@H](CS(C)(=O)=O)C(=O)N[C@H](CC(C)C)[C@@H](O)C[C@@H](C)C(=O)N[C@@H](C(=O)NCC(C)C)C(C)C)co1` [Structure 28], for which the Ki at memapsin 2, at memapsin 1 and on Cathepsin D (setting [1]) was 100 to 1000 nM in each case.
Consider `Cc1csc(COC(=O)N[C@@H](CS(C)(=O)=O)C(=O)N[C@H](CC(C)C)[C@@H](O)C[C@@H](C)C(=O)N[C@@H](C(=O)NCC(C)C)C2CCCCC2)n1` [Structure 33], for which the Ki on memapsin 2 is 100 to 1000 nM; at memapsin 1, 100 to 1000 nM; at Cathepsin D (setting [1]), more than 1000 nM.
For the molecule `CSC[C@H](NC(=O)CCc1nc(C)oc1C)C(=O)N[C@H](CC(C)C)[C@@H](O)C[C@@H](C)C(=O)N[C@@H](C(=O)NCC(C)C)C(C)C` [Structure 41], the Ki is less than 100 nM at memapsin 2, 100 to 1000 nM at memapsin 1 and less than 100 nM at Cathepsin D (setting [1]).
Regarding `Cc1nc(COC(=O)N[C@@H](CS(C)(=O)=O)C(=O)N[C@H](CC(C)C)[C@@H](O)C[C@@H](C)C(=O)NCC(C)C)c(C)o1` [Structure 42], the Ki on memapsin 2 and at memapsin 1 was more than 1000 nM throughout.
Regarding `Cc1nc(CCC(=O)N[C@@H](CS(C)(=O)=O)C(=O)N[C@H](CC(C)C)[C@@H](O)C[C@@H](C)C(=O)N[C@@H](C(=O)NCC(C)C)C(C)C)c(C)o1` [Structure 44], the Ki was less than 100 nM at memapsin 2, less than 100 nM at memapsin 1 and 100 to 1000 nM at Cathepsin D (setting [1]).
For the molecule `Cc1csc(COC(=O)N[C@@H](CS(C)(=O)=O)C(=O)N[C@H](CC(C)C)[C@@H](O)C[C@@H](C)C(=O)N[C@@H](C(=O)NCc2ccncc2)C(C)C)n1` [Structure 45], the Ki on memapsin 2 was 100 to 1000 nM; at memapsin 1 it was more than 1000 nM; on Cathepsin D (setting [1]), 100 to 1000 nM.
For `Cc1nc(COC(=O)N[C@@H](CS(C)(=O)=O)C(=O)N[C@H](Cc2ccccc2)[C@@H](O)C[C@@H](C)C(=O)N[C@@H](C(=O)NCC(C)C)C(C)C)c(C)o1` [Structure 51], the inhibitory constant (Ki) at memapsin 2, at memapsin 1 and at Cathepsin D (setting [1]) was less than 100 nM in each case.
Consider `CSC[C@H](NC(=O)OCc1nc(C)cs1)C(=O)N[C@H](Cc1ccccc1)[C@@H](O)C[C@@H](C)C(=O)N[C@@H](C(=O)NCC(C)C)C(C)C` [Structure 52], for which the Ki is less than 100 nM at memapsin 2, 100 to 1000 nM at memapsin 1 and less than 100 nM on Cathepsin D (setting [1]).
For `CSC[C@H](NC(=O)OCc1noc(C)n1)C(=O)N[C@H](CC(C)C)[C@@H](O)C[C@@H](C)C(=O)N[C@@H](C(=O)NCC(C)C)C(C)C` [Structure 61], the Ki on memapsin 2 was 100 to 1000 nM; on memapsin 1, more than 1000 nM; at Cathepsin D (setting [1]) it was less than 100 nM.
On the same counts, the results for `Cc1nc(COC(=O)N[C@@H](CS(C)(=O)=O)C(=O)N[C@H](CC(C)C)[C@@H](O)C[C@@H](C)C(=O)N[C@@H](C(=O)NCC(C)C)C(C)C)no1` [Structure 62] are more than 1000 nM, more than 1000 nM and 100 to 1000 nM.
In the case of `Cc1csc(COC(=O)N[C@@H](CS(C)(=O)=O)C(=O)N[C@@H](CC(C)C)[C@@H](O)C[C@@H](C)C(=O)NN(C)S(C)(=O)=O)n1` [Structure 63], the Ki at memapsin 2, at memapsin 1 and on Cathepsin D (setting [1]) was more than 1000 nM each time.
For `CSC[C@H](NC(=O)[C@@H](C)Cc1nc(C)cs1)C(=O)N[C@H](CC(C)C)[C@@H](O)C[C@@H](C)C(=O)N[C@@H](C(=O)NCC(C)C)C(C)C` [Structure 65], the Ki on memapsin 2 was less than 100 nM; on memapsin 1 it was less than 100 nM; at Cathepsin D (substrate NH3-ELDLAVEFWHDR-CO2, MALDI-TOF), less than 100 nM.
Turning to `Cc1noc(COC(=O)N[C@@H](CS(C)(=O)=O)C(=O)N[C@H](CC(C)C)[C@@H](O)C[C@@H](C)C(=O)N[C@@H](C(=O)NCC(C)C)C(C)C)n1` [Structure 69], the Ki on memapsin 2, at memapsin 1 and at Cathepsin D (setting [1]) was 100 to 1000 nM each time.
On to `CCc1nc(COC(=O)N[C@@H](CSC)C(=O)N[C@H](CC(C)C)[C@@H](O)C[C@@H](C)C(=O)N[C@@H](C(=O)NCC(C)C)C(C)C)c(C)s1` [Structure 70], for which the Ki on memapsin 2, on memapsin 1 and on Cathepsin D (setting [1]) was less than 100 nM throughout.
